Assay results reported in publication PMC4079120 (Journal of the American Chemical Society, 2013).

Biological target: GABA-A receptor
Experiment: block of evoked GABA-A receptor currents in layer […] pyramidal neurons

Row | Compound | EC50 [µM]
1 | RuBi-Glu | 7.7
2 | COc1ccc([N+](=O)[O-])c2c1CCN2C(=O)CC[C@H](N)C(=O)O [MNI-Glu] | 105
3 | DEAC450-Glu [compound 7] | ~33
